Tests used:
[1] = tested on: Akt phosphorylation in Molt-4 (PTEN−/SHIP1+) cells; assay: Akt phosphorylation in IGF-1 stimulated Molt-4 lymphocytes (western blot); assay type: cell-based; design: key: +: inhibits Akt phosphorylation at 10 μM; −: no effect on Akt phosphorylation at 10 μM; details: 10 μM; IGF-1 stimulation
Experimental: (§1) Jurkat (PTEN−/SHIP1−) or Molt-4 (PTEN−/SHIP1+) cells were starved in serum free RPMI for overnight. In a 15 mL conical tube, 2-3 million serum starved cells (1 million cells per mL) were treated with various concentrations of test compound (0.1, 1, or 10 μM final in 0.1% DMSO) for 30 min at 37° C. followed by stimulation with 100 ng/mL of IGF-1 for 1 hour at 37° C. After stimulation, cells were washed once with ice-cold DPBS and lysed with Lysis Buffer (20 mM Tris-HCl, pH 7.5, 140 mM NaCl, 1% NP-40, Complete Mini Protease Inhibitor Cocktail, 10 mM NaF, 1 mM Na3VO4, 1 mM β-glycerolphosphate) on ice for 30 min with vortexing every 10 min. Samples were then centrifuged at 13,000 rpm for 20 min, and supernatants were collected as total cell lysate samples. Protein concentration was determined using bicinchonic acid assay, and about 15 μg of total protein from each sample was loaded and separated on a 4-12% Tris-Glycine gel. After SDS-PAGE, proteins were transferred from the gel to a nitrocellulose membrane. The membrane was blocked in 5% BSA in PBS containing 0.1% Tween-20 (PBS-T) for 1 hour at room temperature before probing with primary antibodies for overnight at 4° C. The following antibodies were used: mouse anti-SHIP1 (1:500 dilution; Santa Cruz, Calif., USA), rabbit anti-phospho-Akt(Ser473) (1:1000 dilution; Cell Signaling Technologies, MA, USA), rabbit anti-Akt (1:1000; Cell Signaling Technologies, MA, USA), and rabbit anti-actin (1:2000; Cell Signaling Technologies, MA, USA). The membrane was then incubated with goat anti-rabbit or anti-mouse secondary antibodies (1:3000) for 1 hour at room temperature. Target proteins on the membrane were detected with ECL solution and exposed on a film.
(§2) Scoring in Table 3 is expressed as follows: + (inhibits Akt phosphorylation at 10 μM); − (no effect on Akt phosphorylation at 10 μM).

[2] = tested on: Akt phosphorylation in Jurkat (PTEN−/SHIP1−) cells; assay: Akt phosphorylation in IGF-1 stimulated Jurkat lymphocytes (western blot); assay type: cell-based; design: key: +: inhibits Akt phosphorylation at 10 μM; −: no effect on Akt phosphorylation at 10 μM; details: 10 μM; IGF-1 stimulation
Experimental: as §1, §2

[3] = tested on: allergen-induced passive cutaneous anaphylaxis; assay: Passive cutaneous anaphylaxis in mice; assay type: in vivo; details: oral gavage, doses less than 20 mg/kg
Experimental: The activity of representative compounds on passive cutaneous anaphylaxis in mice was evaluated according to the procedures disclosed by Ovary, J Immunol 81, 355-357, 1958 and Halpern et al., Br J Pharmacol Chemother 20, 389-398, 1963, both of which are incorporated herein by reference in their entirety. To induce a passive cutaneous anaphylaxis, mice underwent intradermal ear inoculation on their right ear with 25 ng in 20 μL of anti-DNP-IgE. The left ears were untreated and served as negative controls. Twenty-four hours after inoculation, all mice were administered test compound by oral gavage (PO). Sixty minutes after oral administration, mice were given a tail vein injection of 2% Evan's blue (0.2 μm filtered, in 200 μL saline) followed by a second tail IV injection of 100 μg DNP-HSA (in 200 μL). Sixty minutes following the DNP-HSA injection, mice were euthanized using CO2 inhalation. Subsequently, ear biopsies were performed by taking four millimetre punches from both ears, which then underwent Evan's Blue extraction using formamide incubation in 96 well plates. Eighty μL of eluents were transferred to flat-bottom 96-well plates and absorbance read using SpectraMax M5 spectrophotometer (Molecular Devices, Sunnyvale, Calif., USA) at 620 nm. Background readings from all samples were taken at 740 nm and subtracted from the 620 nm readings. Data were reported as OD. […] Scoring in Table 4 is expressed as follows: + (1-30% inhibition); ++ (31-50% inhibition); +++ (>50% inhibition).

[4] = tested on: allergen-induced passive cutaneous anaphylaxis; assay: Passive cutaneous anaphylaxis in rats; assay type: in vivo; details: oral gavage
Experimental: The activity of representative compounds on passive cutaneous anaphylaxis in rats was evaluated according to the procedures disclosed by Goose et al., Immunology 16, 749-760, 1969, which is incorporated herein by reference in its entirety. To induce a passive cutaneous anaphylaxis, rats underwent dorsal intradermal inoculation with 50 μL of anti-ovalbumin-IgE. Sixteen hours after inoculation, all rats were administered test compound by oral gavage (PO). Sixty minutes after oral administration, rats were given a tail vein injection of 5 mg Evan's blue and 1 mg ovalbumin. Sixty minutes following the ovalbumin injection, rats were euthanized using CO2 inhalation. Subsequently, skin edema was visualized, measured and scored. When tested in this assay, representative Compound.

| SMILES | Akt phosphorylation, Molt-4 (SHIP1+) [1] | Akt phosphorylation, Jurkat (SHIP1−) [2] | Scoring: inhibition of passive cutaneous anaphylaxis [3] | inhibition of allergen-induced passive cutaneous anaphylaxis ([4]; 30 mg/kg) | inhibition of allergen-induced passive cutaneous anaphylaxis ([4]; 100 mg/kg) |
| --- | --- | --- | --- | --- | --- |
| CC1(C)CCC[C@]2(C)[C@H]3CS(=O)(=O)c4cc(O)cc(O)c4[C@]3(C)CC[C@@H]12 [Compound No. 28, (1R,10R,11S,16S)-3,5-dihydroxy-1,11,15,15-tetramethyl-8-thiatetracyclo[8.8.0.0^2,7.0^11,16]octadeca-2,4,6-triene-8,8-dione] | + | − | +++ (>50% inhibition) | 26% | 38% |
| Cc1cc(O)cc2c1[C@]1(C)CC[C@H]3C(C)(C)CCC[C@]3(C)[C@H]1CO2 [Compound No. 6, (1R,10R,11S,16S)-1,3,11,15,15-pentamethyl-8-oxatetracyclo[8.8.0.0^2,7.0^11,16]octadeca-2,4,6-trien-5-ol] | + | − | ++ (31-50% inhibition) | 14% | 29% |

From patent US8101605B2, “SHIP1 modulators and methods related thereto” (Aquinox Pharmaceuticals Inc., priority 2009, dated 2012)
